Assay results: patent publication US6239171A, “Tocotrienols and tocotrienol-like compounds and methods for their use” (Lipogenics, Inc., priority 1998, dated 2001)

Legend:
[1] = target: T1, Fatty Acid Synthase (Gallus gallus, UniProt P12276); assay: Fatty acid synthase activity in isolated chicken hepatocytes; format: cell-based
T1 construct: hepatocytes isolated from livers of 8-week old female chickens; endogenous in cells; host or cells: primary chicken hepatocytes
Protocol: (§1) This study measured the effects of three tocotrienols isolated from rice bran on cholesterol-related enzyme activity in hepatocytes isolated from livers of 8-week old female chickens. The chickens were fed the chick mash diet for 8 weeks. They were then fasted for 40 hours and finally refed for 48 hours before sacrifice. The hepatocytes were then prepared following standard methods.
(§2) Each compound was isolated from TRF using the following protocol: A bond Elute amine column was equilibrated with 2 ml hexane. 10 mg of TRF (dissolved in 0.5 ml hexane) was bound to the amine column. The column was washed with 1 ml of hexane, then with 1 ml of 3% isopropanol in hexane. P-21 and P-25 were eluted off the column with 5% isopropanol in hexane. Then using 10% isopropanol in hexane, the impurity P-20 was eluted. α-tocotrienol was also tested.

[2] = test system: cholesterol 7α-hydroxylase; assay: Cholesterol 7α-hydroxylase activity in isolated chicken hepatocytes; format: cell-based
Protocol: as §1, §2

[3] = test system: hypercholesterolemic swine; assay: Total cholesterol, triglyceride and glucose concentrations in tissues of hypercholesterolemic swine; format: in vivo; conditions: control diet + 50 ppm, 42 days
Protocol: Each group of three 5-month old swine was administered either a control diet or a control diet supplemented with 50 ppm of TRF or 50 ppm of an individual tocotrienol. […] After a 12 hour fast, serum and plasma samples were taken a 0 hrs, 21 days and 42 days from the start of the feeding period. After taking serum and plasma samples from the pigs at the end of the 42 day period, all of the swine were fasted for a total of 40 hours, followed by a 48 hour refeeding period. One swine from each group was sacrificed at that time and the liver, intestine, lung, heart, loin muscle, adipose tissue and ham muscle were removed.
We next determined the effect of tocotrienols on the total cholesterol, triglyceride and glucose concentrations in various tissues of hypercholesterolemic swine.

[4] = test system: hypercholesterolemic swine; assay: Body weight gain and feed conversion efficiency in hypercholesterolemic swine; format: in vivo; conditions: control diet + 50 ppm
Protocol: Each group of three 5-month old swine was administered either a control diet or a control diet supplemented with 50 ppm of TRF or 50 ppm of an individual tocotrienol. The samples were prepared as described in Example 11. After a 12 hour fast, serum and plasma samples were taken a 0 hrs, 21 days and 42 days from the start of the feeding period. After taking serum and plasma samples from the pigs at the end of the 42 day period, all of the swine were fasted for a total of 40 hours, followed by a 48 hour refeeding period. One swine from each group was sacrificed at that time and the liver, intestine, lung, heart, loin muscle, adipose tissue and ham muscle were removed.

T1 sequence (P12276 2-2512 limits assumed): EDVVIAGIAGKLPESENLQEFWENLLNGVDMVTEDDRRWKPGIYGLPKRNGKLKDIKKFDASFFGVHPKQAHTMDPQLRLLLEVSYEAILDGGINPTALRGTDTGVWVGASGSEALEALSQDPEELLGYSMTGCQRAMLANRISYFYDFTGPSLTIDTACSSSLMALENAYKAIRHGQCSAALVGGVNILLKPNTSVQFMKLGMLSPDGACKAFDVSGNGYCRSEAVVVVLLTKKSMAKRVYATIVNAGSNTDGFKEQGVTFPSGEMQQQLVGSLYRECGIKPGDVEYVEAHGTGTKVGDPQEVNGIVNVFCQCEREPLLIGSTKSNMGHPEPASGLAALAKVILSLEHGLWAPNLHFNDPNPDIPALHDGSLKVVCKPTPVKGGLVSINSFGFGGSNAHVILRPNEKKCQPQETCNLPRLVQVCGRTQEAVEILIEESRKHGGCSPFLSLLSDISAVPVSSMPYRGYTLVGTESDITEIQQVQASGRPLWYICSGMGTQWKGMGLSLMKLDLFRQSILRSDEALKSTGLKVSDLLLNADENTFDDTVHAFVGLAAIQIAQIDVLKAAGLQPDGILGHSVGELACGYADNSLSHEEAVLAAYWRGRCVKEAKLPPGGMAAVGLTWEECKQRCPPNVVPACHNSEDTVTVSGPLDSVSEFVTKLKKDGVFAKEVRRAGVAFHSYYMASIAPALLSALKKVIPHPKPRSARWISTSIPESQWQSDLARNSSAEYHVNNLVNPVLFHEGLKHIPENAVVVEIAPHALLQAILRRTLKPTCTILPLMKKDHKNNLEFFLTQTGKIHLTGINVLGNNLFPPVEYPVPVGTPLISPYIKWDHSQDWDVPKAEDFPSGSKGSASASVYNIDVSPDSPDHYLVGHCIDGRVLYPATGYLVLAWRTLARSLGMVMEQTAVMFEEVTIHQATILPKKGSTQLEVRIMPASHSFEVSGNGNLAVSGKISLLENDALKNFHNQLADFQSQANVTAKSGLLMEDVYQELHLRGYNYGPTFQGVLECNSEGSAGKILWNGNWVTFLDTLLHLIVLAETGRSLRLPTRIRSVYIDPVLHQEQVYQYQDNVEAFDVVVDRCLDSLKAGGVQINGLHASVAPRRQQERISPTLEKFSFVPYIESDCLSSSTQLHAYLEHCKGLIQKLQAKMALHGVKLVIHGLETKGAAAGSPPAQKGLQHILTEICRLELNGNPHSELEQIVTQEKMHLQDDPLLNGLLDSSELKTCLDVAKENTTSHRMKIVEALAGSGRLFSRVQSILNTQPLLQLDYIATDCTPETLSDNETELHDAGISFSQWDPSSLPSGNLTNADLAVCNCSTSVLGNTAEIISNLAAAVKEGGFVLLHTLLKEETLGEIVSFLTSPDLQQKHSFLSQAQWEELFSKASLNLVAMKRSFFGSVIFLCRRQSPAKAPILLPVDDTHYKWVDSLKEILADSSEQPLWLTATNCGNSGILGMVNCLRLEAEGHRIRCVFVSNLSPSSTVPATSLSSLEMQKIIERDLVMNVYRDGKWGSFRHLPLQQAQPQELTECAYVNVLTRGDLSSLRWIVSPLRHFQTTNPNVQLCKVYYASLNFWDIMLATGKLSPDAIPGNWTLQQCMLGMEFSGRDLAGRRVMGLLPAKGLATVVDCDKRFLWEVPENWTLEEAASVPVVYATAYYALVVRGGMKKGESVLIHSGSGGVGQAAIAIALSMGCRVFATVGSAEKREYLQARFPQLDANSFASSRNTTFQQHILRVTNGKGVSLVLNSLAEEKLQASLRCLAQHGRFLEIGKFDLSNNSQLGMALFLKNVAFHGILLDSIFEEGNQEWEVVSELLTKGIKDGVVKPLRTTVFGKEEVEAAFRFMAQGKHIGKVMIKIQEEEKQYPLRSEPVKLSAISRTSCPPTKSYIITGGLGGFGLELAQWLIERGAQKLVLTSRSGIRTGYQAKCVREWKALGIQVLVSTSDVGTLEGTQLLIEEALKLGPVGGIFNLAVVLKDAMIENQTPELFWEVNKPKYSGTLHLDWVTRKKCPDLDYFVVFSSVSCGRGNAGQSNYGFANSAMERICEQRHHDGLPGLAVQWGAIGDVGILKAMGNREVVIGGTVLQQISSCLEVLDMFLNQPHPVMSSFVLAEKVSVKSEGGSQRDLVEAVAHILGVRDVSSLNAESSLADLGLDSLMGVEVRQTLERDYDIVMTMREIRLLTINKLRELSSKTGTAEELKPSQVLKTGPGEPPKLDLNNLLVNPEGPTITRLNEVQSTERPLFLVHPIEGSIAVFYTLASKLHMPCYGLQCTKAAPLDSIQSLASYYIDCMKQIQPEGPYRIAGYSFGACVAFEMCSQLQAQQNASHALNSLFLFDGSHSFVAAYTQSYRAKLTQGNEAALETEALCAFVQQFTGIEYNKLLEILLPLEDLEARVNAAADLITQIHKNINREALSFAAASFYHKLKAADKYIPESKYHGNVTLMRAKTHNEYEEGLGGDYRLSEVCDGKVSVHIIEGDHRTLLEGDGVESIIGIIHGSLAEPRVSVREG

With `CC(C)=CCC/C(C)=C/CC/C(C)=C/CCC1(C)CCc2cc(O)ccc2O1` (centres unmarked) [P21, 3,4-dihydro-2-methyl-2-(4,8,12-trimethyltrideca-3' (E),7'(E),11'-trienyl)-2H-1-benzopyran-6-ol] the “Fatty Acid Synthase” value ([1]; 10.0 μg/mL) was 14.3 nmol/min/mg, the “Fatty Acid Synthase, percentage of 0.0 μg/mL” value ([1]; 10.0 μg/mL) was 83.1% and the “Fatty Acid Synthase” value ([1]; 20.0 μg/mL) was 12.7 nmol/min/mg. For the same compound, the “Fatty Acid Synthase, percentage of 0.0 μg/mL” value ([1]; 20.0 μg/mL) was 73.8%, the “Fatty Acid Synthase” value ([1]; 40.0 μg/mL) was 11.8 nmol/min/mg and the “Fatty Acid Synthase, percentage of 0.0 μg/mL” value ([1]; 40.0 μg/mL) was 68.6%. The “Fatty Acid Synthase” value ([1]; 80.0 μg/mL) was 10.2 nmol/min/mg, the “Fatty Acid Synthase, percentage of 0.0 μg/mL” value ([1]; 80.0 μg/mL) was 59.3% and the “Cholesterol 7α-hydroxylase” value ([2]; 10.0 μg/mL) was 2.41 pmol/min/mg. For the same compound, the “Cholesterol 7α-hydroxylase, percentage of 0.0 μg/mL” value ([2]; 10.0 μg/mL) was 104.3%, the “Cholesterol 7α-hydroxylase” value ([2]; 20.0 μg/mL) was 3.40 pmol/min/mg and the “Cholesterol 7α-hydroxylase, percentage of 0.0 μg/mL” value ([2]; 20.0 μg/mL) was 103.9%. The “Cholesterol 7α-hydroxylase” value ([2]; 40.0 μg/mL) was 2.39 pmol/min/mg, the “Cholesterol 7α-hydroxylase, percentage of 0.0 μg/mL” value ([2]; 40.0 μg/mL) was 103.5% and the “Cholesterol 7α-hydroxylase” value ([2]; 80.0 μg/mL) was 1.37 pmol/min/mg. For the same compound, the “Cholesterol 7α-hydroxylase, percentage of 0.0 μg/mL” value ([2]; 80.0 μg/mL) was 102.6%, the “TOTAL CHOLESTEROL CONCENTRATION, Adipose Tissue” value [3] was 89.85 mg/100 gm and the “TOTAL CHOLESTEROL CONCENTRATION, Ham Muscle” value [3] was 79.51 mg/100 gm. For the same compound, the “TOTAL CHOLESTEROL CONCENTRATION, Heart” value [3] was 53.63 mg/100 gm, the “TOTAL CHOLESTEROL CONCENTRATION, Intestine” value [3] was 180.59 mg/100 gm and the “TOTAL CHOLESTEROL CONCENTRATION, Liver” value [3] was 136.70 mg/100 gm. The “TOTAL CHOLESTEROL CONCENTRATION, Loin Muscle” value [3] was 100.58 mg/100 gm, the “TOTAL CHOLESTEROL CONCENTRATION, Lung” value [3] was 75.68 mg/100 gm and the “TOTAL CHOLESTEROL, Adipose Tissue, percentage of control” value [3] was 82.13%. The “TOTAL CHOLESTEROL, Ham Muscle, percentage of control” value [3] was 79.51%, the “TOTAL CHOLESTEROL, Heart, percentage of control” value [3] was 83.13% and the “TOTAL CHOLESTEROL, Intestine, percentage of control” value [3] was 83.80%. The “TOTAL CHOLESTEROL, Liver, percentage of control” value [3] was 67.81%, the “TOTAL CHOLESTEROL, Loin Muscle, percentage of control” value [3] was 84.09% and the “TOTAL CHOLESTEROL, Lung, percentage of control” value [3] was 74.39%. For the same compound, the “TOTAL GLUCOSE CONCENTRATION, Adipose Tissue” value [3] was 16.67 mg/100 gm, the “TOTAL GLUCOSE CONCENTRATION, Ham Muscle” value [3] was 54.01 mg/100 gm and the “TOTAL GLUCOSE CONCENTRATION, Heart” value [3] was 44.17 mg/100 gm. The “TOTAL GLUCOSE CONCENTRATION, Intestine” value [3] was 62.50 mg/100 gm, the “TOTAL GLUCOSE CONCENTRATION, Liver” value [3] was 374.22 mg/100 gm and the “TOTAL GLUCOSE CONCENTRATION, Loin Muscle” value [3] was 55.45 mg/100 gm. For the same compound, the “TOTAL GLUCOSE CONCENTRATION, Lung” value [3] was 61.92 mg/100 gm, the “TOTAL GLUCOSE, Adipose Tissue, percentage of control” value [3] was 90.89% and the “TOTAL GLUCOSE, Ham Muscle, percentage of control” value [3] was 100.35%. The “TOTAL GLUCOSE, Heart, percentage of control” value [3] was 89.69%, the “TOTAL GLUCOSE, Intestine, percentage of control” value [3] was 86.84% and the “TOTAL GLUCOSE, Liver, percentage of control” value [3] was 92.35%. The “TOTAL GLUCOSE, Loin Muscle, percentage of control” value [3] was 77.84%, the “TOTAL GLUCOSE, Lung, percentage of control” value [3] was 92.51% and the “TOTAL TRIGLYCERIDES CONCENTRATION, Adipose Tissue” value [3] was 282.82 mg/100 gm. The “TOTAL TRIGLYCERIDES CONCENTRATION, Ham Muscle” value [3] was 182.16 mg/100 gm, the “TOTAL TRIGLYCERIDES CONCENTRATION, Heart” value [3] was 142.38 mg/100 gm and the “TOTAL TRIGLYCERIDES CONCENTRATION, Intestine” value [3] was 347.75 mg/100 gm. The “TOTAL TRIGLYCERIDES CONCENTRATION, Liver” value [3] was 386.25 mg/100 gm, the “TOTAL TRIGLYCERIDES CONCENTRATION, Loin Muscle” value [3] was 194.75 mg/100 gm and the “TOTAL TRIGLYCERIDES CONCENTRATION, Lung” value [3] was 165.47 mg/100 gm. For the same compound, the “TOTAL TRIGLYCERIDES, Adipose Tissue, percentage of control activity” value [3] was 64.91%, the “TOTAL TRIGLYCERIDES, Ham Muscle, percentage of control activity” value [3] was 98.03% and the “TOTAL TRIGLYCERIDES, Heart, percentage of control activity” value [3] was 98.72%. The “TOTAL TRIGLYCERIDES, Intestine, percentage of control activity” value [3] was 97.24%, the “TOTAL TRIGLYCERIDES, Liver, percentage of control activity” value [3] was 89.96% and the “TOTAL TRIGLYCERIDES, Loin Muscle, percentage of control activity” value [3] was 88.65%. For the same compound, the “TOTAL TRIGLYCERIDES, Lung, percentage of control activity” value [3] was 96.22% and the “increase of feed conversion efficiency” value [4] was 7%.
